Assays:
[1] = system: keratinocyte-melanocyte co-cultures; experiment: Induced pigmentation in keratinocyte-melanocyte co-cultures, DOPA staining and computerized image analysis; type: cell-based, Human
Description: The peptides Peptide 1 and Peptide 2 and various pigments were tested, alone or in combination, with keratinocyte-melanocyte cultures for their effect on cell pigmentation, using DOPA staining and computerized image analysis. The pigments that were tested were the pigmented natural extract Hedychium spicatum extract sold as Kapur Kachali from Amsar Private Limited (Indore, India), copper chloride from Sigma (St. Louis, Mo.) and the water-soluble melanin derivatives Melasyn-100™ from San-mar laboratories, Inc. (Elmsford, N.Y.) and MelanZe™ from Zylepsis (Ashford, Kent, United Kingdom). The pigments were tested at concentrations ranging from 0.0001%(W/V) to 1%(W/V) and peptides were tested at 50 μM.
The assay was conducted in the following manner. Human HaCaT keratinocytes (Boukamp P., et al., J Cell Biol 106, 3, 761-771 (1988)) were maintained in Dulbecco's Modified Eagle's Medium (DMEM) containing 10% fetal bovine serum (FBS), 4.5 mg/ml glucose, 2 mM L-glutamine, 50 U/ml penicillin and 50 μg/ml streptomycin (Life Technologies, Gaithersburg, Md.). Cells were maintained at <80% confluency in 5% CO2 (v/v) and were used in experimental procedures up to culture passage 15. Human primary melanocytes (Clonetics, San Diego, Calif. or Cascade Biologics, Portland, Oreg.) were maintained according to manufacturer's instructions. To establish keratinocyte-melanocyte co-cultures, 6×10^4 melanocytes were plated in each well of a 24 well plate and maintained according to manufacturer's instructions.
Melanocytes were rinsed three times with melanocyte growth media without PMA and keratinocytes (6×10^4) were plated to establish the co-cultures in this media. Co-cultures were treated for three days with test peptides and pigments, and assayed for cell viability and pigment level on the forth day. Cell viability was assayed using alamarBlue™ (Acumed International, West Lake, Ohio) following manufacturer's instructions. No change in viability was observed following three daily treatments with all tested material. All in vitro experiments were performed in triplicates, and were repeated at least three times.
Following three daily treatments, the co-cultures were briefly fixed (10% buffered formalin from Fisher Scientific, 15 minutes), washed three times with Phosphate-buffered saline (PBS, from Life Technologies) and stained with L-3,4-Dihydroxyphenylalanine (DOPA, from Sigma, St. Louis, Mo.) 0.1% in PBS, for 5 hours at 37° C., followed by two PBS washes and formalin (10%, overnight) fixation. DOPA is a substrate for tyrosinase, therefore an increase in staining represents increased tyrosinase activity and pigment production. DOPA-stained monolayers were used for image analysis. All images were obtained and analyzed with Image Pro Plus 3.0 software (Media Cybernetics, Silver Spring, Md.). Parameters measured were surface area of stained material within melanocyte and keratinocytes and the total surface area of the cells in the culture, and the relative pigmented area was calculated. A value of 100% was assigned to untreated controls, and values of treatment groups were normalized to their relevant controls. In all experiments there was no difference between PBS-treated cells and untreated controls. Data are presented with standard deviation (SigmaPlot® 5.0, SPSS Science, Chicago, Ill.).
Forskolin (Sigma, St. Louis, Mo.), a known inducer of pigmentation, served as a positive control and a reference point. Forskolin was administered at 1% (W/V).

[2] = system: Dark skinned Yucatan microswine; experiment: Induced pigmentation in vivo, F&M-stained histological skin sections scored for pigment deposition; design: key: −1: slight lightening; 0: No change; 1: Minimal increase in pigment deposition; 2: Increased pigment deposition; 3: Strong increase in pigment deposition, some increase in caps; 4: Strong increase in pigment deposition, strong increase in caps; details: topical twice a day, five days/week, eight or nine weeks, average of all sites of responsive swine
Description: Compositions of the present invention were tested for their ability to induce in vivo pigmentation in skin cells in the following experiment. Dark skinned Yucatan microswine (Charles River, Portland, Me.) were housed in appropriately sized cages in an environmentally controlled room with a 12-hour light-12-hour dark photoperiod and supplied with food and water ad libitum. Animal care was based on the “Guide for the Care and Use of Laboratory Animals”, NIH Publication No. 85-23. Twenty μl of test peptides were applied topically, twice a day, five days/week, for eight or nine weeks, on the dorsum of the swine. Treatments of individual swine were always arranged in a head to tail order on one side, and in a tail to head order on the other side of the animal. Biopsies were taken using standard techniques.
Sections from the skin biopsies were stained with Hematoxylin and Eosin (H&E), or with Fontana-Mason (F&M), using standard procedures (Sheenan DC, Hrapckak BB, eds., Theory and Practice of Histo-technology. p. 223, 277, The C. V. Mosby Co., St. Louis (1980)). F&M staining identifies silver nitrate reducing molecules. In skin, this non-specific stain identifies primarily melanin. At least three sections per biopsy were processed. […]
F&M-stained histological skin sections were evaluated for the change in pigment deposition within the treated site. […]

[3] = Table 1, 50 μM, three daily treatments, relative pigmented area after DOPA staining, control 0.184
[4] = Table 1, 50 μM, three daily treatments, versus control

[Cl][Cu][Cl] [CuCl2, copper chloride, reference compound]
Mean area ([1]; Table 2, CuCl2 0.001% (w/v), control 0.029): 0.063
% increase ([1]; Table 2, CuCl2 0.001% (w/v), normalized to control): 220%

C=C[C@@]1(C)CC(=O)[C@]2(O)[C@@]3(C)[C@@H](O)CCC(C)(C)[C@@H]3[C@H](O)[C@H](OC(C)=O)[C@@]2(C)O1 [Forskolin, reference compound]
Mean area ([1]; Table 2, Forskolin 1% (w/v), positive control, control 0.029): 0.067
% increase ([1]; Table 2, Forskolin 1% (w/v), positive control, normalized to control): 231.0%
Score (pigment deposition) ([2]; positive control at 1% (W/V)): 1

H2-Leu-Ile-Gly-Arg-Leu-NH2 (H-LIGRL-NH2) [Peptide 2]
Mean area [1, 3]: 0.240
% increase [1, 4]: 30.8%

H2-Leu-Ile-Gly-Arg-NH2 (H-LIGR-NH2) [Peptide 1]
Mean area [1, 3]: 0.270
% increase [1, 4]: 46.8%
% increase ([1]; Table 2, Peptide 1 50 μM, normalized to control): 279%
Mean area ([1]; Table 2, Peptide 1 50 μM, three daily treatments, control 0.029): 0.080
Score (pigment deposition) ([2]; peptide at 250 μM or 500 μM): 2

Reference: patent US20030138388A1, “Peptides and the use thereof in darkening the skin” (priority 2001, published 2003)
